Test results as given in US11179391B2, “Compound with kinase inhibitory activity and preparation method and use thereof” (priority 2017, dated 2021).

Experiments:
CDK1/CyclinB = CDK1/CyclinB (Homo sapiens, UniProt P06493); test: Determination of CDK activity (Caliper mobility shift, FAM-P8 peptide): CDK1; assay type: biochemical; details: CDK1/CyclinB; read-out: CDK1 enzymatic inhibitory activity (IC50)
[1] = Pharmacokinetic study in rats; assay type: in vivo, Sprague-Dawley rats; details: for F / Cmax / Tmax / clearance / half-life / AUC(0-t): male Sprague-Dawley rats; for F: iv 2 mg/kg and oral 5 mg/kg; for clearance in rat plasma (in words) / half-life in rat plasma (in words) / level of exposure at 24 h in rat plasma (in words): at the dose of 10 mg/kg; for Cmax / Tmax / clearance / half-life / AUC(0-t): rat, plasma, study dosed iv 2 mg/kg and oral 5 mg/kg, route of this parameter not given; for AUC(0-t): read-out: AUC0-24 h
Experimental: Healthy adult Sprague-Dawley rats, male, 7-10 weeks old, weighing 240-270 g, provided by Beijing Vital River Laboratory Animal Technology Co., Ltd., with an animal certificate number of 1140070278736.
Test compounds of the invention: example 17, 33, 40, and 57.
Intravenous administration solvent system of compounds: 10% (V/V) NMP and 90% (20% (V/V)) SBE-β-CD in 16.667 mM PBS with a concentration of 1.0 mg/mL.
Oral administration solvent system of compounds: pure water system containing 0.1% hydroxyethyl cellulose and 0.5% Tween-80, with a concentration of 1 mg/mL.
Intravenous administration: 3 male Sprague-Dawley rats of each test compound were injected intravenously after fasting overnight, with a dose of 2 mg/kg, and the dosing volume was 2 mL/kg. […]
Before the administration, and after administration of 0.0833 (iv), 0.25, 0.5, 1, 2, 4, 8, 12, and 24 h, the jugular vein puncture (approximately 0.15 mL per time point) of each animal was performed by collecting blood from polypropylene tubes. All blood samples were transferred to pre-cooled EDTA-K2 test tubes or pre-cooled plastic microcentrifuge tubes containing 3 μL of 0.5 M EDTA-K2 as anticoagulant and placed on wet ice until centrifugation. Each collected blood was centrifuged at 4° C. for 15 minutes, and plasma was collected. All plasma would be stored in a freezer at about −80° C. until LCMS/MS detection.

[2] = tested on: Human breast cancer MCF-7 cells; test: Pharmacodynamic study on mouse MCF-7 model (subcutaneous xenograft); assay type: in vivo, BALB/c nude mice; details: for Tumor volume (day 0) / antitumor effect compared with Abemaciclib (in words) / Tumor volume (day 14) / T/C relative tumor proliferation rate / TGI tumor growth inhibition rate: MCF-7 model; for Tumor volume (day 0): baseline at start of dosing; for Tumor volume (day 0) / Tumor volume (day 14) / T/C relative tumor proliferation rate / TGI tumor growth inhibition rate: mesylate, 30 mg/kg PO × 14 days; for antitumor effect compared with Abemaciclib (in words): same dosage (30 mg/kg PO × 14 days); for T/C relative tumor proliferation rate / TGI tumor growth inhibition rate: day 14; for inhibitory effect on the tumor growth (in words): MCF-7 nude mouse model, 30 mg/kg, continuous PO administration for 14 days
[3] = tested on: Human breast cancer MDA-MB-361 cells; test: Pharmacodynamic study on mouse MDA-MB-361 model (subcutaneous xenograft); assay type: in vivo, SCID Beige mice; details: for inhibitory effect on the tumor growth (in words): 15 mg/kg, continuous PO administration for 28 days; for Tumor volume (day 0): baseline at start of dosing; for Tumor volume (day 0) / Tumor volume (day 28) / T/C relative tumor proliferation rate / TGI tumor growth inhibition: methanesulfonic acid salt, 15 mg/kg PO × 28 days; for T/C relative tumor proliferation rate / TGI tumor growth inhibition: day 28

Sequence of CDK1/CyclinB (P06493 whole entry): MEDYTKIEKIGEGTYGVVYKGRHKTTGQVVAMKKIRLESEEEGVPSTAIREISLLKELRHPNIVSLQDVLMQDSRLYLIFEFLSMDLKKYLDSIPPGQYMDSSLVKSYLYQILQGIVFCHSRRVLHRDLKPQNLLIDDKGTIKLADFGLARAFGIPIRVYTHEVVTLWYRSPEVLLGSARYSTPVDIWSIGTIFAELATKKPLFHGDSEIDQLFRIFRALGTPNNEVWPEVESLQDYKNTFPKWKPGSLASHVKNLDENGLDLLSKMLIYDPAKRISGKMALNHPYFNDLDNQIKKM
Sequence of CDK1/CyclinB (P14635 whole entry partner): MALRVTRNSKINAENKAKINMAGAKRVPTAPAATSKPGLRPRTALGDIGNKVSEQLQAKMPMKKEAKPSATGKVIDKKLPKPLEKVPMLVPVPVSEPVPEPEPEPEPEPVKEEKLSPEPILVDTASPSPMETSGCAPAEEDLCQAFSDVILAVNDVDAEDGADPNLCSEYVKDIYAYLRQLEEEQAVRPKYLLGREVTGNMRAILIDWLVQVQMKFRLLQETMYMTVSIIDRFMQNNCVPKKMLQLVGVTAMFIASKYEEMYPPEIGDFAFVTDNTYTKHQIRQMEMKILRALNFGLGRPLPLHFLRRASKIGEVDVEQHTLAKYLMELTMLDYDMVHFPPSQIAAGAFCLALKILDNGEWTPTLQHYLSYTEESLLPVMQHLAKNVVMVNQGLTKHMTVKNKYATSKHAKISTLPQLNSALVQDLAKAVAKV

SMILES | IC50 (CDK1/CyclinB) [nM] | F [1] [%] | clearance in rat plasma (in words) [1] | half-life in rat plasma (in words) [1] | level of exposure at 24 h in rat plasma (in words) [1] | Cmax [1] [ng/mL] | Tmax [1] [h] | clearance [1] [mL/min/kg] | half-life [1] [h] | AUC(0-t) [1] [ng·h/mL] | Tumor volume (day 0) [2] [mm^3] | antitumor effect compared with Abemaciclib (in words) [2] | Tumor volume (day 14) [2] [mm^3] | T/C relative tumor proliferation rate [2] [%] | TGI tumor growth inhibition rate [2] [%] | inhibitory effect on the tumor growth (in words) [2] | inhibitory effect on the tumor growth (in words) [3] | Tumor volume (day 0) [3] [mm^3] | Tumor volume (day 28) [3] [mm^3] | T/C relative tumor proliferation rate [3] [%] | also measured
CCN1CCC(C(C)c2ccc(Nc3ncc(F)c(-c4cc(F)c5nc(C)n(C(C)C)c5c4)n3)nc2)CC1 (single isomer, unassigned) [Example 17, (R or S)—N-(5-(1-(1-ethylpiperidin-4-yl)ethyl)pyridin-2-yl)-5-fluoro-4-(4-fluoro-1-isopropyl-2-methyl-1H-benzo[d]imidazol-6-yl) pyrimidin-2-amine] | 100 to 500 | 66.9 | lower clearance | longer half-life | high level of exposure | 225 | 8 | 14.1 | 9.38 | 3580 | 210 | better antitumor effects than positive control compound Abemaciclib | 216 | 0.9 | 99.1 | strong inhibitory effect | very strong inhibitory effect | 175 | 90 | −49 | TGI tumor growth inhibition [3]: 149%
CCN1CCC(=Cc2ccc(Nc3ncc(F)c(-c4cc(F)c5nc(C)n(C(C)C)c5c4)n3)nc2)CC1 [Example 57, N-(5-((1-ethylpiperidin-4-ylidene)methyl)pyridin-2-yl)-5-fluoro-4-(4-fluoro-1-isopropyl-2-methyl-1H-benzo[d]imidazol-6-yl)pyrimidin-2-amine] | 100 to 500 | 57.6 | lower clearance | longer half-life | high level of exposure | 205 | 8 | 14.8 | 11.7 | 3080 | 209 | better antitumor effects than positive control compound Abemaciclib | 290 | 12.5 | 87.5 | strong inhibitory effect | very strong inhibitory effect | 175 | 99 | −43 | TGI tumor growth inhibition [3]: 143%
